Laboratory results published in US20250206789A1, “ZINC FINGER DEGRON SEQUENCES” (STICHTING HET NEDERLANDS KANKER INSTITUUT-ANTONI VAN …, priority 2022, published 2025).

Test system: Jurkat cells
Experiment: SynFinger library screen: CD69 expression of CRASH-IT (Zap70-PD1-degron) transduced Jurkat cells with or without lenalidomide, enrichment index from NGS reads
Assay type: cell-based
Parameters: key to EI / EI index (enrichment index): enrichment index; low EI = SynFinger with desired properties
Conditions: Table 6; dual substitutions in first hybrid zinc finger domain; Jurkat, 50 nM lenalidomide vs mock, CD69-HI/CD69-LO; low EI = desired
Description: […] Jurkat cells were transduced with the SynFinger library (SynFinger containing CRASH-IT switches) at a 12.8% transduction efficiency and sorted for high EGFP expression to enrich transduced cells. For quality control of the SynFinger transduced Jurkat cells, SynFinger sequences were amplified and analyzed by NGS. 10 randomly selected SynFinger encoding DNA sequences or DNA sequences encoding the same SynFinger amino acid sequences but contain 2 nucleotide mismatches due to alternative codon usage were used to assess ability to distinguish true SynFinger sequences from noise in the NGS data. 10/10 SynFinger encoding full-nucleotide sequence match sequences were observed within NGS data whereas the 2 nucleotide mismatch containing sequences were not detected.
Jurkat cells expressing the SynFinger library were treated with 50 nM lenalidomide (a suboptimal dose that activates only ˜50% of cells expressing a CRASH-IT switch containing the parental double hybrid degron in Jurkat cells, as compared to a maximally effective 1000 nM lenalidomide dose) or were mock treated for 24 hours, and subsequently activated with anti-CD3/anti-CD28 antibodies in the presence or absence of 50 nM lenalidomide for 5 hours. Afterwards, cells were stained with IR dye (1:400) and anti-CD69-PE (1:200). Cells were sorted for live (IR dye negative), EGFP high end CD69 high (top 5%) or CD69 low (bottom 5%) expression using Aria Fusion cytometers.
Subsequently, cells were washed with PBS, and cell pellets were frozen at −20° C. until DNA extraction. Genomic DNA was isolated using the DNeasy Blood & Tissue Kit (Qiagen) according to the manufacturer's instructions, using 5×10^6 cells per column. DNA was eluted in 22 μl RNAse free water. Deep sequencing adapters and indexes were added to SynFinger encoding DNA sequences using PCR amplification. Briefly, 3 μg genomic DNA (20 μl), indexed forward and reverse primers (10 μM, 2.5 μl each) and 25 μl NEBNext® High-Fidelity 2×PCR Master Mix were added to the PCR reaction. An optimized PCR reaction (98° C. for 30 s, (98° C. for 10 s, 56° C. for 10 s, 72° C. for 5 s)×25 cycles, 72° C. for 3 min was performed using Eppendorf PCR cyclers.
Indexed PCR products were run on agarose gel, relative DNA concentrations were estimated by measuring band intensity, and 12 indexed PCR reaction products were mixed per MiSeq chip. To increase sequence diversity, samples were mixed with 25% PhiX DNA. In total, 2 MiSeq chips were used (100 bp, single read). To distinguish genuine SynFinger sequences from sequencing errors, results were filtered using a reference list of actual sequences used in SynFinger library design (100% codon match). Sequences with a very low number of reads (sum of all samples below 500 reads) were excluded from analysis.
To identify SynFingers that improve sensitivity of CRASH-IT switches towards lenalidomide while preserving or improving stringency of switch mediated control of T cell activation in the absence of lenalidomide, an enrichment index (EI) value was calculated for each sequence as described below, and SynFingers were ranked according to their EI, with a low EI indicating a SynFinger with desired properties.
CD69-HI and […] read counts from top 100 SynFingers were compared with read counts from the parental double hybrid degron using a two-sided Fisher's exact test to determine enrichment of CD69-HI cells in the presence of lenalidomide and enrichment of CD69-LO cells in the absence of lenalidomide.
To further improve the sensitivity of double hybrid degron towards IMiDs, we performed a high throughput screen using a library of ˜50,200 CRASH-IT variants that encode either single or double amino acid substitutions at the indicated positions of the first hybrid zinc finger sequence, thereby changing 18 amino acids of this zinc finger into any amino acid except cysteine (FIG. 3). […]

| Substance | EI index (enrichment index) |
| --- | --- |
| 1 (LQCRICGFTCRLKGNLLRHIKLH) [compound 1] | 0 |
| 2 (LQCEICGFTCRRTGNLLRHIKLH) [compound 2] | 0.002912 |
| 3 (LQCEICGFTCRRKGNLMRHIKLH) [compound 3] | 0.003725 |
| 4 (LQCEICGFTCRQKMRLLRHIKLH) [compound 4] | 0.00411 |
| 5 (LQCEICGFTCRQVKNLLRHIKLH) [compound 5] | 0.004648 |
| 6 (LQCEICGFTCRQKNNLLRHIALH) [compound 6] | 0.004719 |
| 7 (LQCEICGFTCRQKNNLLRHIKRH) [compound 7] | 0.004969 |
| 8 (LQCEICGFTCRQLGNLLWHIKLH) [compound 8] | 0.006187 |
| 9 (LQCEICGFTCRRVGNLLRHIKLH) [compound 9] | 0.006877 |
| 10 (LQCWICGFTCRQKGNLLRHIYLH) [compound 10] | 0.00695 |
| 11 (LQCPICGFTCRQKSNLLRHIKLH) [compound 11] | 0.008068 |
| 12 (IQCEACGFTCRQKGNLLRHIKLH) [compound 12] | 0.008564 |
| 13 (LQCEICGFTCRQKGNMLRHIRLH) [compound 13] | 0.008761 |
| 14 (LQCEICGFTCRQKGNLIRHILLH) [compound 14] | 0.009984 |
| 15 (LQCLICGFTCRRKGNLLRHIKLH) [compound 15] | 0.01014 |
| 16 (LQCEICGFTCRRKGNLYRHIKLH) [compound 16] | 0.0107 |
| 17 (LQCIICGFTCRQKGNLLKHIKLH) [compound 17] | 0.0108 |
| 18 (LQCAICGFTSRQKGNLLRHIKLH) [compound 18] | 0.01133 |
| 19 (LQCEICGFTCRLKGNLLRHILLH) [compound 19] | 0.01177 |
| 20 (LQCKICGFTCRVKGNLLRHIKLH) [compound 20] | 0.01216 |
| 21 (LQCEICGFSCRQKGNLRRHIKLH) [compound 21] | 0.01255 |
| 22 (LQCKICGFTSRQKGNLLRHIKLH) [compound 22] | 0.01311 |
| 23 (LQCEICGFTCRKKGALLRHIKLH) [compound 23] | 0.0133 |
| 24 (LQCEICGFTCRQKHNLLRHIKNH) [compound 24] | 0.01351 |

| Substance | EI index (enrichment index) |
| --- | --- |
| 25 (LQCKICGFTCRQMGNLLRHIKLH) [compound 25] | 0.01383 |
| 26 (FQCEICGFTCRQKVNLLRHIKLH) [compound 26] | 0.01478 |
| 27 (LQCEICGFTCVQKGNLLRHIALH) [compound 27] | 0.01487 |
| 28 (LQCEICGFTCRRKGNLLRHIKHH) [compound 28] | 0.01589 |
| 29 (LQCEICGFTCRQVGWLLRHIKLH) [compound 29] | 0.01609 |
| 30 (LQCMICGFTFRQKGNLLRHIKLH) [compound 30] | 0.01673 |
| 31 (LQCEICGFTCRQKTRLLRHIKLH) [compound 31] | 0.01686 |
| 32 (LQCEICGFTCRQEKNLLRHIKLH) [compound 32] | 0.01693 |
| 33 (LQCDICGFTCRQKGNLLLHIKLH) [compound 33] | 0.01705 |
| 34 (LQCEICGFTCRQKYNLLRHISLH) [compound 34] | 0.01723 |
| 35 (LQCEICGFTARRKGNLLRHIKLH) [compound 35] | 0.01754 |
| 36 (YQCVICGFTCRQKGNLLRHIKLH) [compound 36] | 0.01769 |
| 37 (FQCEICGFTCRQKHNLLRHIKLH) [compound 37] | 0.01787 |
| 38 (LQCEICGYTCRKKGNLLRHIKLH) [compound 38] | 0.01794 |
| 39 (LQCEICGFTCRQKGRLLRHIKQH) [compound 39] | 0.01901 |
| 40 (LQCEICGFTCKQKKNLLRHIKLH) [compound 40] | 0.01915 |
| 41 (LQCEVCGFTCRKKGNLLRHIKLH) [compound 41] | 0.01944 |
| 42 (LQCEICGFTCRRKGNLLRHRKLH) [compound 42] | 0.01965 |
| 43 (FQCEICGFTCRQKGRLLRHIKLH) [compound 43] | 0.01977 |
| 44 (LQCEICGFTCRQKANLKRHIKLH) [compound 44] | 0.02064 |
| 45 (LQCIICGFTCRQKGNLWRHIKLH) [compound 45] | 0.0209 |
| 46 (LQCEICGFTCRQKGNLYRHYKLH) [compound 46] | 0.021 |
| 47 (LQCEICGFTCRQKGTLLRHIKRH) [compound 47] | 0.02209 |
| 48 (LQCEICGFTCRKKGNLLRHKKLH) [compound 48] | 0.02219 |

| Substance | EI index (enrichment index) |
| --- | --- |
| 49 (LQCEICGFTCRRKGSLLRHIKLH) [compound 49] | 0.02268 |
| 50 (LQCEICGFTCRNKKNLLRHIKLH) [compound 50] | 0.02307 |
| 51 (LQCEICGFTCRQKKNLLRHISLH) [compound 51] | 0.02309 |
| 52 (FQCEICGFTCRQKRNLLRHIKLH) [compound 52] | 0.0231 |
| 53 (LQCEICGFTCRQKGNLLRHYKTH) [compound 53] | 0.02363 |
| 54 (LQCEICGFTCRQKGNLLVHIALH) [compound 54] | 0.02408 |
| 55 (LQCEICGFTCRQKFKLLRHIKLH) [compound 55] | 0.0247 |
| 56 (LQCKICGFTCRHKGNLLRHIKLH) [compound 56] | 0.02543 |
| 57 (LQCEICGFTCRQKMNLVRHIKLH) [compound 57] | 0.02583 |
| 58 (LQCRICGFTCRQKGNMLRHIKLH) [compound 58] | 0.02584 |
| 59 (LQCEICGFTCRLKGNLLLHIKLH) [compound 59] | 0.02682 |
| 60 (LQCEICGFTCRQWGNYLRHIKLH) [compound 60] | 0.02739 |
| 61 (WQCEICGFTCRQYGNLLRHIKLH) [compound 61] | 0.0276 |
| 62 (LQCEICGFTCRQPGNLLRHIKRH) [compound 62] | 0.02767 |
| 63 (LQCWICGFTCRRKGNLLRHIKLH) [compound 63] | 0.02829 |
| 64 (LQCEICGFTCRQKGNLHLHIKLH) [compound 64] | 0.02947 |
| 65 (LQCEICGFTCRQKGNLLRHIFKH) [compound 65] | 0.02989 |
| 66 (LQCVICGFTCRQKGNLVRHIKLH) [compound 66] | 0.02989 |
| 67 (LQCEICGFTCRQQLNLLRHIKLH) [compound 67] | 0.0303 |
| 68 (HQCEICGFTCRQKGRLLRHIKLH) [compound 68] | 0.03141 |
| 69 (LQCEICGFTCRQKGNLDRHIKRH) [compound 69] | 0.03188 |
| 70 (LQCWICGFTCRQKMNLLRHIKLH) [compound 70] | 0.03192 |
| 71 (LQCEICGFTCRKKNNLLRHIKLH) [compound 71] | 0.03227 |
| 72 (YQCEICGFTCRQKGNLLRHIILH) [compound 72] | 0.03275 |
